{"source": "patent US20070105792A1", "about": "“Administration Of DNA Methylation Inhibitors For Treating Epigenetic Diseases” (priority 2005, published 2007)", "test_system": "adult patients with MDS", "assay": "Randomized open-label controlled clinical study of decitabine plus supportive care in MDS patients", "type": "in vivo, human", "excerpt": "A randomized open-label, controlled clinical study at 23 sites evaluated 170 adult patients with MDS meeting French-American-British (FAB) classification and International Prognostic Scoring System (IPSS) High-Risk, Intermediate-2 and Intermediate-1 prognostic scores.\nEighty-nine patients were randomized to decitabine therapy plus supportive care (only 83 received drug), and 81 to Supportive Care (SC) alone. Patients with Acute Myeloid Leukemia (AML) were not intended to be included.\nDecitabine was supplied as a lyophilized powder, 50 mg in 20 mL vials, for reconstitution and injection. Decitabine was reconstituted with 10 mL of Sterile Water for Injection USP to yield a solution of 5 mg/mL decitabine and 6.8 mg/mL KH2PO4. The reconstituted solution was further diluted for intravenous infusion with prechilled (2-8° C.) 0.9% Sodium Chloride solution USP. To slow degradation of study drug, infusion solution was refrigerated at 2-8° C. until administration, for a maximum of 10 hours.\nPatients randomized to the decitabine arm received decitabine intravenously infused at a dose of 15 mg/m^2 over a three-hour period, every eight hours, for 3 consecutive days (1 cycle). Each administration of decitabine at a dose of 15 mg/m^2 infused over a three-hour period was a continuous infusion without changing the infusion bag. The total amount of decitabine per day was 45 mg/m^2; the total dose per cycle was 135 mg/m^2. […] For patients with inadequate counts 6 weeks after treatment, the study protocol specified that blood counts be repeated at least weekly during the following two-week interval, and that a reduced-dose cycle (11 mg/m^2 over a three-hour period, every eight hours, for 3 consecutive days) was to be administered if blood counts recovered to within acceptable limits (as defined above) between week 6 and 8.\nDelayed myelotoxicity, with a neutrophil nadir reached between about day 18-24, is the primary toxicity of decitabine. Cytopenias, however, are also a hallmark of the MDS disease process, making it difficult to distinguish between treatment-related neutropenia and disease progression. Accordingly, the protocol required that patients showing persistent neutropenia (ANC <1,000/μL) or thrombocytopenia (platelets <50,000/μL) beyond 8 weeks following a decitabine cycle undergo bone marrow aspiration and biopsy. Upon a finding of no disease progression (i.e. only bone marrow aplasia), blood counts were to be monitored for an additional two weeks, and a reduced-dose cycle (as defined above) was to be administered if blood counts recovered to within acceptable limits (as defined above) during weeks 8-10. Patients showing neutropenia or thrombocytopenia beyond 10 weeks were to receive no further decitabine treatment.\nSupportive care consisted of blood and blood product transfusions, prophylactic antibiotics, and hematopoietic growth factors. Co-primary endpoints of the study were overall response rate (CR+PR) and time to AML or death. Responses were classified with the MDS International Working Group (IWG) criteria; patients were required to be RBC and platelet transfusion independent during the time of response.", "key": {"[1]": {"details": "ITT, N = 89, 15 mg/m^2 3 hr iv infusion every 8 hrs for 3 days"}, "[2]": {"details": "ITT, N = 89, listed as decitabine"}, "[3]": {"details": "patients evaluable for response (confirmed MDS at baseline, at least 2 courses)"}, "[4]": {"details": "patients with adjudicated baseline diagnosis of AML"}, "[5]": {"details": "patients with cytogenetic abnormalities, MDS IWG criteria"}}, "note": "Marks after values point to notes of the source that are not given here.", "data": [{"smiles": "Nc1ncn([C@H]2C[C@H](O)[C@@H](CO)O2)c(=O)n1", "note": "[Decitabine, 5-aza-2′-deoxycytidine]", "values": [{"measurement": "Response by IPSS Classification (CR + PR)", "setting": "High Risk", "result": "(13%)"}, {"measurement": "Response by IPSS Classification (CR + PR), responders/patients", "setting": "High Risk", "result": "3/23"}, {"measurement": "Median Duration of (CR + PR + HI) response", "setting": "ITT", "result": 253, "unit": "days"}, {"measurement": "Median time to (CR + PR + HI) response", "setting": "ITT", "result": 44, "unit": "days"}, {"measurement": "Complete Response (CR)", "setting": "ITT, N = 89", "result": "(9%)"}, {"measurement": "Complete Response (CR), number of patients", "setting": "ITT, N = 89", "result": 8}, {"measurement": "Hematologic Improvement (HI)", "setting": "ITT, N = 89", "result": "(12%)"}, {"measurement": "Hematologic Improvement (HI), number of patients", "setting": "ITT, N = 89", "result": 11}, {"measurement": "Overall Improvement Rate (CR + PR + HI)", "setting": "ITT, N = 89", "result": "(29%)**"}, {"measurement": "Overall Improvement Rate (CR + PR + HI), number of patients", "setting": "ITT, N = 89", "result": 26}, {"measurement": "Partial Response (PR)", "setting": "ITT, N = 89", "result": "(8%)"}, {"measurement": "Partial Response (PR), number of patients", "setting": "ITT, N = 89", "result": 7}, {"measurement": "Overall Response Rate (CR + PR)", "setting": "[1]", "result": 17, "unit": "%"}, {"measurement": "Overall Response Rate (CR + PR), number of patients", "setting": "[1]", "result": 15}, {"measurement": "Hematologic Improvement (HI)", "setting": "[2]", "result": 12, "unit": "%"}, {"measurement": "Overall Improvement Rate (CR + PR + HI)", "setting": "[2]", "result": 29, "unit": "%"}, {"measurement": "Response by IPSS Classification (CR + PR)", "setting": "Int-1", "result": "(14%)"}, {"measurement": "Response by IPSS Classification (CR + PR), responders/patients", "setting": "Int-1", "result": "4/28"}, {"measurement": "Response by IPSS Classification (CR + PR)", "setting": "Int-2", "result": "(21%)"}, {"measurement": "Response by IPSS Classification (CR + PR), responders/patients", "setting": "Int-2", "result": "8/38"}, {"measurement": "Patients who became transfusion independent", "setting": "RBC transfusion dependent at baseline", "result": 39, "unit": "%"}, {"measurement": "RBC and platelet transfusion status of responders", "setting": "all 15 responders, in the absence of growth factors", "result": "remained or became RBC and platelet transfusion independent"}, {"measurement": "Quality of Life assessment (EORTC scale)", "setting": "baseline, end of each treatment cycle and post-treatment", "result": "less dyspnea, less fatigue and better physical functioning and global health status"}, {"measurement": "Median time to AML or death", "setting": "decitabine arm, p=0.160, ns vs SC", "result": 340, "unit": "days"}, {"measurement": "Cycle by which all responders had responded", "setting": "decitabine patients who responded", "result": "by the fourth cycle"}, {"measurement": "Median Duration of (CR + PR) response", "setting": "decitabine responders", "result": 266, "unit": "days"}, {"measurement": "Median time to (CR + PR) response", "setting": "decitabine responders", "result": 89, "unit": "days"}, {"measurement": "Overall response rate", "setting": "[3]", "result": 21, "unit": "%"}, {"measurement": "Overall response rate, responders/patients", "setting": "[3]", "result": "12/56"}, {"measurement": "Objective response (CR or PR)", "setting": "[4]", "result": 56, "unit": "%"}, {"measurement": "Objective response (CR or PR), responders/patients", "setting": "[4]", "result": "5/9"}, {"measurement": "Major cytogenetic responses", "setting": "[5]", "result": 21, "unit": "%"}, {"measurement": "Major cytogenetic responses, responders/patients", "setting": "[5]", "result": "10/48"}, {"measurement": "Minor cytogenetic response, number of patients", "setting": "[5]", "result": "one"}, {"measurement": "Patients who became transfusion dependent", "setting": "transfusion independent at baseline", "result": 15, "unit": "%"}]}]}
